Results reported in publication PMC4406453, “A highly conserved, inhibitable astacin metalloprotease from Teladorsagia circumcincta is required for cuticle formation and nematode development^” (International Journal for Parasitology, 2015).
pIC50: −log10 of the molar value.

Target: T1, recombinant T. circumcincta DPY-31 (Tc rDPY-31) (Teladorsagia circumcincta, UniProt A0A0C5PRQ1)
T1 construct: catalytic astacin domain only (684 bp codon-optimised synthetic gene), His-tagged, pET-28a(+) NdeI/XhoI, E. coli BL21 (DE3), Ni-NTA, 23 kDa; full-length precursor 614 residues
T1 sequence (A0A0C5PRQ1 151-378 limits assumed): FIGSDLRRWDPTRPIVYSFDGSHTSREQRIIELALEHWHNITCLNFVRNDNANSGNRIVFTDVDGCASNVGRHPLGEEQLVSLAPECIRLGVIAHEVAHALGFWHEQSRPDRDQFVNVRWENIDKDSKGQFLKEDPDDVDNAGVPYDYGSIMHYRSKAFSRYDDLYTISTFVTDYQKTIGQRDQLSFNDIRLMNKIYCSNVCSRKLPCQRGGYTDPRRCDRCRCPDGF
Experiment: chromogenic protease assay, Suc-Ala-Ala-Ala-pNA, […] nm
Assay type: biochemical
Conditions: read-out: Effective concentration against T. circumcincta rDPY-31 ^d

**Q.** How did the pIC50 turn out when CCCCC[C@H](CC(=O)NO)C(=O)N[C@H](C(=O)N1CCC[C@H]1CO)C(C)C [Actinonin] was run?
**A.** The pIC50 was 4.30.
